Reference: patent US9597407B2, “Targeted antimicrobial moieties” (C3 Jian, Inc., priority 2009, dated 2017)
Ends that are not written are not given here.

Test system: microorganisms
Assay: Morphology, biofilm and growth disruption by peptides (Table 5)
Assay type: cell-based
Design: key: A: Peptide aggregates; B: Less hyphal formation; Clumps; Diffuse clumps and small polyps; F: Diffuse growth; H: Thin; I: Growth inhibition; Microcolony formation; Rippled; Small polyps; Thick; W: Halo formation on top, microlonies on bottom
Text: In certain embodiments peptides that induce alterations in phenotype or other biological activities can also be used as antimicrobial effector moieties.

Substance: PF-534 (KYFHLFYHNIIHYSKQHLSLKVDFKN-NH2)
- Organism, effect (morphology, biofilm and growth disruption) (E. coli): E. coli (R)
- Organism, effect (morphology, biofilm and growth disruption) (E. faecalis): E. faecalis (C)
- Organism, effect (morphology, biofilm and growth disruption) (MRSA): MRSA (C)
- Organism, effect (morphology, biofilm and growth disruption) (S. epidermidis): S. epidermidis (C)
- Organism, effect (morphology, biofilm and growth disruption) (S. pneumoniae): S. pneumoniae (R)

Substance: PF-019 (NDTNK; Peptide with targeting and/or antimicrobial activity)
- Organism, effect (MRSA): MRSA (M)

Substance: PF-468 (EDNKDKKDKKDK; Peptide with targeting and/or antimicrobial activity)
- Organism, effect (morphology, biofilm and growth disruption) (S. pneumoniae): S. pneumoniae (H)

Substance: PF-516 (ASKQASKQASKQASKQ; Peptide with targeting and/or antimicrobial activity)
- Organism, effect (morphology, biofilm and growth disruption) (S. pneumoniae): S. pneumoniae (H)

Substance: PF-274 (SIQEAEKIIKNDPFYIHDVADYDFMWFEPSKSLEEIKEFV; Peptide with targeting and/or antimicrobial activity)
- Organism, effect (M. luteus): M. luteus (M)

Substance: PF-581 (WTARARR; Peptide with targeting and/or antimicrobial activity)
- Organism, effect (morphology, biofilm and growth disruption) (C. jejuni): C. jejuni (A)
- Organism, effect (morphology, biofilm and growth disruption) (E. faecalis): E. faecalis (A)
- Organism, effect (morphology, biofilm and growth disruption) (MRSA): MRSA (A)
- Organism, effect (morphology, biofilm and growth disruption) (S. pneumoniae): S. pneumoniae (A)

Substance: PF-605 (HYRWNTQWWKY; Peptide with targeting and/or antimicrobial activity)
- Organism, effect (morphology, biofilm and growth disruption) (C. albicans): C. albicans (B)
- Organism, effect (morphology, biofilm and growth disruption) (C. jejuni): C. jejuni (R)
- Organism, effect (morphology, biofilm and growth disruption) (E. coli): E. coli (C)
- Organism, effect (morphology, biofilm and growth disruption) (E. faecalis): E. faecalis (R)
- Organism, effect (morphology, biofilm and growth disruption) (MRSA): MRSA (C)
- Organism, effect (morphology, biofilm and growth disruption) (P. aeruginosa): P. aeruginosa (A)
- Organism, effect (morphology, biofilm and growth disruption) (S. epidermidis): S. epidermidis (R)
- Organism, effect (morphology, biofilm and growth disruption) (S. pneumoniae): S. pneumoniae (D)

Substance: PF-571 (SDLLYYPNENREDSPAGVVKEVKE; Peptide with targeting and/or antimicrobial activity)
- Organism, effect (morphology, biofilm and growth disruption) (B. subtilis): B. subtilis (D)

Substance: PF-431 (VAYAAICWW; Peptide with targeting and/or antimicrobial activity)
- Organism, effect (morphology, biofilm and growth disruption) (C. jejuni): C. jejuni (R)
- Organism, effect (morphology, biofilm and growth disruption) (E. faecalis): E. faecalis (R)
- Organism, effect (morphology, biofilm and growth disruption) (MRSA): MRSA (C)
- Organism, effect (morphology, biofilm and growth disruption) (S. epidermidis): S. epidermidis (M)
- Organism, effect (morphology, biofilm and growth disruption) (S. pneumoniae): S. pneumoniae (R)

Substance: PF-335 (AAYPIEDWSDWYEDFFIMLSNI; Peptide with targeting and/or antimicrobial activity)
- Organism, effect (B. subtilis): B. subtilis (C)
- Organism, effect (S. epidermidis): S. epidermidis (C)

Substance: PF-032 (RIVVPAHQSNMASTPNLSITP; Peptide with targeting and/or antimicrobial activity)
- Organism, effect (C. jeikeium): C. jeikeium (C)
- Organism, effect (S. epidermidis): S. epidermidis (S)

Substance: LGLTAGVAYAAQPTNQPTNQPTNQPTNQPTNQPTNQPRW-NH2 [PF-520]
- Organism, effect (morphology, biofilm and growth disruption) (S. pneumoniae): S. pneumoniae (M)

Substance: PF-339 (KKIDILINKYMYLSK; Peptide with targeting and/or antimicrobial activity)
- Organism, effect (B. subtilis): B. subtilis (C)
- Organism, effect (S. epidermidis): S. epidermidis (C)

Substance: PF-624 (VFLLDSYCFVKINL; Peptide with targeting and/or antimicrobial activity)
- Organism, effect (morphology, biofilm and growth disruption) (E. coli): E. coli (C)
- Organism, effect (morphology, biofilm and growth disruption) (M. luteus): M. luteus (C)
- Organism, effect (morphology, biofilm and growth disruption) (MRSA): MRSA (C)
- Organism, effect (morphology, biofilm and growth disruption) (P. mirabilis): P. mirabilis (C)
- Organism, effect (morphology, biofilm and growth disruption) (S. epidermidis): S. epidermidis (D)
- Organism, effect (morphology, biofilm and growth disruption) (S. mutans): S. mutans (D)
- Organism, effect (morphology, biofilm and growth disruption) (S. pneumoniae): S. pneumoniae (D)
